Experimental data reported in PubChem BioAssay (NCI).
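Protocol summary: plate cells (96-well), add compound at 5 concentrations, incubate 48 h, interpolate endpoints linearly. TGI marks complete inhibition of growth.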

Assays:
Assay in all cases: NCI-60 cell line screen, 48 h
LOX IMVI melanoma = tested on: LOX IMVI melanoma
SNB-19 CNS = tested on: SNB-19 CNS
KM12 colon = tested on: KM12 colon
CAKI-1 renal = tested on: CAKI-1 renal
786-0 renal = tested on: 786-0 renal
SR leukemia = tested on: SR leukemia
NCI-H226 lung = tested on: NCI-H226 lung
COLO 205 colon = tested on: COLO 205 colon
PC-3 prostate = tested on: PC-3 prostate
NCI-H460 lung = tested on: NCI-H460 lung
MDA-MB-231 breast = tested on: MDA-MB-231 breast
SK-MEL-28 melanoma = tested on: SK-MEL-28 melanoma
HCC-2998 colon = tested on: HCC-2998 colon
SF-539 CNS = tested on: SF-539 CNS
NCI/ADR-RES ovarian = tested on: NCI/ADR-RES ovarian
SK-MEL-2 melanoma = tested on: SK-MEL-2 melanoma
DU-145 prostate = tested on: DU-145 prostate
OVCAR-5 ovarian = tested on: OVCAR-5 ovarian
M14 melanoma = tested on: M14 melanoma
UACC-62 melanoma = tested on: UACC-62 melanoma
IGROV1 ovarian = tested on: IGROV1 ovarian
MDA-N = tested on: MDA-N
NCI-H23 lung = tested on: NCI-H23 lung
MDA-MB-435 = tested on: MDA-MB-435
UO-31 renal = tested on: UO-31 renal
U251 CNS = tested on: U251 CNS
CCRF-CEM leukemia = tested on: CCRF-CEM leukemia
HS 578T breast = tested on: HS 578T breast
HCT-116 colon = tested on: HCT-116 colon
SNB-75 CNS = tested on: SNB-75 CNS
HOP-92 NSCLC = tested on: HOP-92 NSCLC
TK-10 renal = tested on: TK-10 renal
HOP-62 NSCLC = tested on: HOP-62 NSCLC
MOLT-4 leukemia = tested on: MOLT-4 leukemia
K-562 leukemia = tested on: K-562 leukemia
HCT-15 colon = tested on: HCT-15 colon
UACC-257 melanoma = tested on: UACC-257 melanoma
A549 NSCLC = tested on: A549 NSCLC
RPMI-8226 leukemia = tested on: RPMI-8226 leukemia
A498 renal = tested on: A498 renal
OVCAR-4 ovarian = tested on: OVCAR-4 ovarian
OVCAR-3 ovarian = tested on: OVCAR-3 ovarian
OVCAR-8 ovarian = tested on: OVCAR-8 ovarian
ACHN renal = tested on: ACHN renal
T-47D breast = tested on: T-47D breast
MCF7 breast = tested on: MCF7 breast
BT-549 breast = tested on: BT-549 breast
SW-620 colon = tested on: SW-620 colon
RXF 393 renal = tested on: RXF 393 renal
SF-295 CNS = tested on: SF-295 CNS
HL-60(TB) leukemia = tested on: HL-60(TB) leukemia
SK-MEL-5 melanoma = tested on: SK-MEL-5 melanoma
EKVX NSCLC = tested on: EKVX NSCLC
SK-OV-3 ovarian = tested on: SK-OV-3 ovarian
HT29 colon = tested on: HT29 colon
SN12C renal = tested on: SN12C renal
NCI-H522 lung = tested on: NCI-H522 lung
MALME-3M melanoma = tested on: MALME-3M melanoma
SF-268 CNS = tested on: SF-268 CNS

Measured: TGI

O=[N+]([O-])c1ccc2[nH]c(O)c(N=NC(=S)Nc3ccccc3)c2c1
22.4 µM: M14 melanoma
27.6 µM: SNB-19 CNS | SF-539 CNS
18.6 µM: HCT-116 colon
12.4 µM: HCC-2998 colon
21.8 µM: HOP-62 NSCLC
26.9 µM: MDA-MB-435
24.8 µM: MDA-MB-231 breast
20.7 µM: PC-3 prostate
26.4 µM: RXF 393 renal
52.2 µM: SK-MEL-28 melanoma
25.8 µM: NCI-H23 lung | SN12C renal
19.9 µM: BT-549 breast
24.7 µM: OVCAR-5 ovarian
67.3 µM: DU-145 prostate
9.2 µM: EKVX NSCLC
31.8 µM: OVCAR-8 ovarian
15.2 µM: CAKI-1 renal
13.5 µM: SK-MEL-5 melanoma
17.7 µM: 786-0 renal
31.3 µM: SK-MEL-2 melanoma
36.3 µM: HL-60(TB) leukemia
17 µM: HCT-15 colon
24.6 µM: LOX IMVI melanoma | MCF7 breast
65.4 µM: NCI-H226 lung
22 µM: UO-31 renal
19.5 µM: ACHN renal
20 µM: CCRF-CEM leukemia
27.4 µM: UACC-257 melanoma
14.5 µM: NCI-H460 lung
19 µM: HT29 colon
38.9 µM: T-47D breast
29 µM: UACC-62 melanoma
28.2 µM: SK-OV-3 ovarian
27 µM: KM12 colon
29.2 µM: OVCAR-4 ovarian
19.6 µM: IGROV1 ovarian
23.6 µM: TK-10 renal
21.7 µM: MDA-N | HOP-92 NSCLC
16.6 µM: U251 CNS | SF-295 CNS
8.62 µM: NCI/ADR-RES ovarian
21.5 µM: SNB-75 CNS
22.6 µM: OVCAR-3 ovarian
13.2 µM: A498 renal
20.8 µM: A549 NSCLC
not listed: NCI-H522 lung | MALME-3M melanoma | SF-268 CNS
> 100 µM: all other assays above

COc1ccccc1N1C(=O)CC(=O)N(C(=O)CCCCCCCCC(=O)N2C(=O)CC(=O)N(c3ccccc3OC)C2=S)C1=S
not listed: IGROV1 ovarian | HL-60(TB) leukemia
> 100 µM: all other assays above

C#CC(O)Cc1ccc(OC)c2occc12 (stereo not given)
not listed: SK-MEL-28 melanoma | CCRF-CEM leukemia | MOLT-4 leukemia | HL-60(TB) leukemia
> 100 µM: all other assays above

Cn1c2ccccc2c2[nH]c3ccccc3c(=O)c21
not listed: OVCAR-4 ovarian | NCI-H522 lung
> 100 µM: all other assays above
